According to US7098307B2, “Neo-tryptophan” (Mayo Foundation for Medical Education and Research, priority 1998, dated 2006):
Square brackets hold non-standard residues; d marks the D form. Peptide text beside a SMILES is read from it. Ala(indol-4-yl) = N[C@@H](Cc1cccc2[nH]ccc12)C(=O)O; NMeR = CN[C@@H](CCCNC(=N)N)C(=O)O; Tle = CC(C)(C)[C@H](N)C(=O)O; Dab = NCC[C@H](N)C(=O)O

Tests used:
[1] = target: T1, dopamine D2 receptors (Homo sapiens, UniProt P14416); test: Radiolabeled competitive binding, human brain tissue, dopamine
T1 construct: Human brain tissue; from tissue; host or cells: human brain tissue

[2] = target: adrenergic α1 receptors; test: Radiolabeled competitive binding, human brain tissue, adrenergic α1; settings: read-out: Kd adrenergic α1
[3] = Body temperature (hypothermia) in rats; settings: for Peak BT change / time of Peak BT change: rats; for induction of hypothermia: intraperitoneal administration (NT64L 1 mg/kg)
[4] = target: T2, human NTR1 (Homo sapiens, UniProt P30989); test: PI turnover ([3H]IP1) in intact CHO-K1 cells, human NTR1; format: cell-based
T2 construct: expressed in transfected cells; host or cells: CHO-K1
Experimental: (§1) To measure PI turnover, intact CHO-K1 cells were harvested at about 80% confluency. Cells were detached from the petri plates by removal of culture medium followed by incubation of the cellular monolayer for 20 minutes at 37° C. with gentle shaking in a modified Puck's D1 solution containing 2 mM EGTA. […] Briefly, intact CHO cells were prelabeled with D-myo-[^3H]inositol (18.3 Ci/mmol) in the presence of lithium chloride (final concentration, 10 mM). […] For the experiments described herein, the stimulation time was 30 minutes, and the number of CHO cells per assay tube was 1.5×10^5.

[5] = target: T3, rat NTR1 (Rattus norvegicus, UniProt P20789); test: PI turnover ([3H]IP1) in intact CHO-K1 cells, rat NTR1; format: cell-based
T3 construct: expressed in transfected cells; host or cells: CHO-K1
Experimental: as §1

[6] = Degradation in rat plasma (HPLC peak area); format: in vitro ADME
From the text: (§2) For the degradation studies, data were plotted in linear form as a semi-log plot with SigmaPlot for Windows Version 4.00. Linear regression on these plots provided the parameters used to calculate the half-time (t1/2) for degradation of each polypeptide. The correlation coefficient (R) for the linear regression was taken as a measure of the goodness-of-fit.

[7] = target: T2, human NTR1; test: Competition binding with [3H]NT, membranes of CHO-K1 cells transfected with human NTR1
Experimental: (§3) CHO-K1 cells were stably transfected with nucleic acid encoding either the human NTR1 or the rat NTR1, and cultured in 150 mm petri plates with 35 mL of Dulbecco-modified Eagle's medium containing 100 μM minimal essential medium nonessential amino acids (GIBCO) supplemented with 5% (v/v) FetalClone II bovine serum product (Hyclone Labs, Logan, Utah). CHO cells (subculture 9–19) were harvested at confluency. Briefly, the medium from each plate was removed by aspiration, and the cells washed with 6 mL of 50 mM Tris-HCl (pH 7.4) and resuspended in 5–10 mL of Tris-HCl by scraping the cells with a rubber spatula. The resuspended cells were placed into a centrifuge tube and collected by centrifugation at 300× g for five minutes at 4° C. in a GPR centrifuge (Beckman Instruments, Fullerton, Calif.). The cellular pellet (in 50 mM Tris-HCl, 1 mM EDTA, pH 7.4) was stored at […] until radioligand binding was performed.
(§4) The supernatant was decanted and discarded, and the cellular pellet was resuspended in 2 mL of Tris-HCl, 1 mM EDTA (pH 7.4) followed by homogenization with a Brinkmann Polytron at setting 6 for ten seconds. Centrifugation was repeated as above and the supernatant was decanted and discarded. The resulting final cellular pellet was resuspended in 50 mM Tris-HCl, lmM EDTA, 0.1% bovine serum albumin, and 0.2 mM bacitracin.
(§5) Incubation was at 20° C. for 30 minutes. Each reaction was terminated by addition of cold 0.9% NaCl (5×1.5 mL) followed by rapid filtration through a GF/B filter strip that had been pretreated with 0.2% polyethylenimine.

[8] = Hot plate test (antinociception, % MPE) in rats; settings: for induction of antinociception (hot plate): intraperitoneal administration (NT64L 1 mg/kg); for ED50 % MPE: intraperitoneal
[9] = target: T3, rat NTR1; test: Competition binding with [3H]NT, membranes of CHO-K1 cells transfected with rat NTR1
Experimental: as §3, §4, §5

[10] = target: 5HT2A receptor (Homo sapiens, UniProt P28223); test: Competitive binding with [3H]ketanserin, human brain tissue
[11] = Degradation in human plasma (HPLC peak area); format: in vitro ADME; settings: human; 25% plasma, 37° C., 0.5 mg/mL polypeptide; read-out: half-time, Plasma Human (converted)
From the text: as §2

[12] = Degradation in rat intestinal preparation; format: in vitro ADME; settings: pH 7.4, 37° C., read-out: half-time, Rat Intestinal Preparation (converted)
Experimental: For intestinal preparations, rats were sacrificed by decapitation, and the small intestines removed. The tissue was washed with ice-cold PBS (10 mM, pH 7.4). About […] of intestinal tissue was added to about 10 mL of PBS and homogenized using a Brinkman polytron homogenizer (setting 6). After homogenization, 10 mL of PBS was added to 10 mL of the intestinal homogenate. […] The supernatant was removed and stored at −20° C. until testing. Immediately before incubation with the polypeptide, the intestinal preparation was filtered through a 0.2 μm filter. Testing procedures were similar to those for the plasma tests.
as §2

[13] = 25% plasma, 37° C., 0.5 mg/mL polypeptide, read-out: half-time, Plasma Rat (converted)

SMILES | Peak BT change ([3]; 1 mg/kg intraperitoneal) | time of Peak BT change ([3]; 1 mg/kg intraperitoneal) [min] | Peak BT change ([3]; 5 mg/kg intraperitoneal) | time of Peak BT change ([3]; 5 mg/kg intraperitoneal) [min] | induction of hypothermia [3] | Kd [7] [nM] | time of Peak % MPE ([8]; 1 mg/kg intraperitoneal, rats) [min] | Peak % MPE ([8]; 5 mg/kg intraperitoneal, rats) [% @] | time of Peak % MPE ([8]; 5 mg/kg intraperitoneal, rats) [min] | induction of antinociception (hot plate) [8] | Kd [9] [nM] | half-life at 0.5 mg/mL [11] [days] | half-life [12] [h] | further results
CC(C)C[C@H](NC(=O)[C@@H](NC(=O)[C@H](Cc1cccc2[nH]ccc12)NC(=O)[C@@H]1CCCN1C(=O)[C@H](CCCNC(=N)N)NC(=O)[C@H](N)CCCCN)C(C)(C)C)C(=O)O [NT66L] (H-[dK]RP[Ala(indol-4-yl)][Tle]L-OH; N-terminus and C-terminus assumed) | −3.0 @ ° C. | 240 | −5.0 @ ° C. | 120 | did induce | 3.7 ± 0.4 | 120 | 100 | 330 | did induce | 0.85 ± 0.09 | 7.08 | – | Kd [1]: 56000 nM; Kd [2]: 38000 nM; ED50 BT ([3]; intraperitoneal, @ 30 min): 0.45 mg/kg; ED50 BT ([3]; intraperitoneal, @ 60 min): 0.18 mg/kg; peak reduction in body temperature (change) ([3]; oral, 20 mg/kg): −1.4 °C; time of peak reduction in body temperature ([3]; oral, 20 mg/kg): 30 min; EC50 [4]: 10 nM; EC50 [5]: 1.9 ± 0.4 nM; half-life at 0.5 mg/mL [6, 13]: 350 h; Peak % MPE ([8]; 1 mg/kg intraperitoneal, rats): 100% @; ED50 % MPE ([8]; @ 30 min): 0.04 mg/kg; ED50 % MPE ([8]; @ 60 min): 0.02 mg/kg; peak % MPE value ([8]; oral, 20 mg/kg): 40%; time of Peak % MPE ([8]; oral, 20 mg/kg): 60 min; Kd [10]: 8700 nM; competition with labeled ketanserin for binding at the 5HT2A receptor ([10]; human brain tissue): found to compete
CN[C@@H](CCCNC(=N)N)C(=O)N[C@@H](CCCCN)C(=O)N1CCC[C@H]1C(=O)N[C@@H](Cc1c[nH]c2ccccc12)C(=O)N[C@H](C(=O)N[C@@H](CC(C)C)C(=O)O)C(C)(C)C [Eisai, reference compound] (H-[NMeR]KPW[Tle]L-OH; N-terminus and C-terminus assumed) | −2.9 @ ° C. | 60 | – | – | did induce | – | 90 | – | – | did induce | – | 19.2 | 22 | ED50 BT ([3]; intraperitoneal, @ 30 min): 0.26 mg/kg; ED50 BT ([3]; intraperitoneal, @ 90 min): 0.12 mg/kg; peak reduction in body temperature ([3]; intraperitoneal, dose not restated): about 3 °C; EC50 [4]: 300 nM; weaker at the human NT receptor than at the rat NT receptor, PI turnover [4]: ~100 fold; EC50 [5]: 3.1 nM; weaker at the human NT receptor compared to binding affinity at the rat receptor ([7]; binding): ~20 fold; ED50 % MPE ([8]; @ 30 min): 0.42 mg/kg; ED50 % MPE ([8]; @ 90 min): 0.08 mg/kg
CC(C)C[C@H](NC(=O)[C@@H](NC(=O)[C@H](Cc1cccc2[nH]ccc12)NC(=O)[C@@H]1CCCN1C(=O)[C@H](N)CCCCN)C(C)(C)C)C(=O)O [NT72] (H-[dK]P[Ala(indol-4-yl)][Tle]L-OH; N-terminus and C-terminus assumed) | – | – | −2.8 @ ° C. | 180 | did induce | 640 | – | 100 | 120 | did induce | 270 ± 30 | 125 | 54 | –
CC[C@H](C)[C@H](NC(=O)[C@H](Cc1cccc2[nH]ccc12)NC(=O)[C@@H]1CCCN1C(=O)[C@H](N)CCCCN)C(=O)N[C@@H](CC(C)C)C(=O)O [NT73] (H-[dK]P[Ala(indol-4-yl)]IL-OH; N-terminus and C-terminus assumed) | – | – | −0.9 @ ° C. | 90 | did induce | 45 ± 3 | – | 40 | 120 | did induce | 32 ± 6 | 12.5 | 0.83 | –
CC(C)C[C@H](NC(=O)[C@@H](NC(=O)[C@H](Cc1cccc2[nH]ccc12)NC(=O)[C@@H]1CCCN1C(=O)[C@@H](N)CCN)C(C)(C)C)C(=O)O [NT74] (H-[Dab]P[Ala(indol-4-yl)][Tle]L-OH; N-terminus and C-terminus assumed) | – | – | – | – | – | – | – | – | – | – | – | – | – | half-life at 0.5 mg/mL ([6]; plasma): 110 h
CN[C@@H](CCCNC(=N)N)C(=O)N[C@@H](CCN)C(=O)N1CCC[C@H]1C(=O)N[C@@H](Cc1cccc2[nH]ccc12)C(=O)N[C@H](C(=O)N[C@@H](CC(C)C)C(=O)O)C(C)(C)C [NT71] (H-[NMeR][Dab]P[Ala(indol-4-yl)][Tle]L-OH; N-terminus and C-terminus assumed) | −2.0 @ ° C. | 40 | −2.4 @ ° C. | 90 | did induce | – | 60 | 79 | 180 | did induce | – | – | 5.1 | half-life at 0.5 mg/mL [6, 13]: 260 h; Peak % MPE ([8]; 1 mg/kg intraperitoneal, rats): 70% @
CC[C@H](C)[C@H](NC(=O)[C@H](Cc1cccc2[nH]ccc12)NC(=O)[C@@H]1CCCN1C(=O)[C@@H](N)CCN)C(=O)N[C@@H](CC(C)C)C(=O)O [NT75] (H-[Dab]P[Ala(indol-4-yl)]IL-OH; N-terminus and C-terminus assumed) | – | – | – | – | – | – | – | – | – | – | – | – | 0.27 | half-life at 0.5 mg/mL ([6]; plasma): 1.6 h
